Test results as given in patent US10208089B2, “Modulation of complement activity” (priority 2014, dated 2019).
Starred links: 1 amine or outer side, 2 acyl side, 3 side chain; linkers in the order of their positions; H or OH if unused. Positions of bridges follow the written chain, without caps; N, C: chain ends. Non-standard residues stand in square brackets, D forms with d. Residues, ends and D or L forms follow the SMILES beside them. Trp(7-aza) = N[C@@H](Cc1c[nH]c2ncccc12)C(=O)O; mXylylene = c1cc(C[*:1])cc(C[*:2])c1; pXylylene = c1cc(C[*:2])ccc1C[*:1]; dChg = N[C@@H](C(=O)O)C1CCCCC1; dPhg = N[C@@H](C(=O)O)c1ccccc1; Phg = N[C@H](C(=O)O)c1ccccc1; Tle = CC(C)(C)[C@H](N)C(=O)O; NMeS = CN[C@@H](CO)C(=O)O; hCys = N[C@@H](CCS)C(=O)O; Nva = CCC[C@H](N)C(=O)O

Target: C5 (Homo sapiens, UniProt P01031)
Assay: Human hemolysis assay (RBC lysis assay using complete human sera)
Type: cell-based
Set-up: with complete human sera (Complement Technology, Tyler Tex.) and polypeptides; tissue Complement Technology, Tyler Tex; host or cells: complete human serum
[1] = inhibition of lysis of antibody-sensitized sheep erythrocytes, complete human sera
[2] = C-terminally truncated polypeptide variants of R3021, inhibition of red blood cell lysis

Sequence of C5 (P01031 19-1676): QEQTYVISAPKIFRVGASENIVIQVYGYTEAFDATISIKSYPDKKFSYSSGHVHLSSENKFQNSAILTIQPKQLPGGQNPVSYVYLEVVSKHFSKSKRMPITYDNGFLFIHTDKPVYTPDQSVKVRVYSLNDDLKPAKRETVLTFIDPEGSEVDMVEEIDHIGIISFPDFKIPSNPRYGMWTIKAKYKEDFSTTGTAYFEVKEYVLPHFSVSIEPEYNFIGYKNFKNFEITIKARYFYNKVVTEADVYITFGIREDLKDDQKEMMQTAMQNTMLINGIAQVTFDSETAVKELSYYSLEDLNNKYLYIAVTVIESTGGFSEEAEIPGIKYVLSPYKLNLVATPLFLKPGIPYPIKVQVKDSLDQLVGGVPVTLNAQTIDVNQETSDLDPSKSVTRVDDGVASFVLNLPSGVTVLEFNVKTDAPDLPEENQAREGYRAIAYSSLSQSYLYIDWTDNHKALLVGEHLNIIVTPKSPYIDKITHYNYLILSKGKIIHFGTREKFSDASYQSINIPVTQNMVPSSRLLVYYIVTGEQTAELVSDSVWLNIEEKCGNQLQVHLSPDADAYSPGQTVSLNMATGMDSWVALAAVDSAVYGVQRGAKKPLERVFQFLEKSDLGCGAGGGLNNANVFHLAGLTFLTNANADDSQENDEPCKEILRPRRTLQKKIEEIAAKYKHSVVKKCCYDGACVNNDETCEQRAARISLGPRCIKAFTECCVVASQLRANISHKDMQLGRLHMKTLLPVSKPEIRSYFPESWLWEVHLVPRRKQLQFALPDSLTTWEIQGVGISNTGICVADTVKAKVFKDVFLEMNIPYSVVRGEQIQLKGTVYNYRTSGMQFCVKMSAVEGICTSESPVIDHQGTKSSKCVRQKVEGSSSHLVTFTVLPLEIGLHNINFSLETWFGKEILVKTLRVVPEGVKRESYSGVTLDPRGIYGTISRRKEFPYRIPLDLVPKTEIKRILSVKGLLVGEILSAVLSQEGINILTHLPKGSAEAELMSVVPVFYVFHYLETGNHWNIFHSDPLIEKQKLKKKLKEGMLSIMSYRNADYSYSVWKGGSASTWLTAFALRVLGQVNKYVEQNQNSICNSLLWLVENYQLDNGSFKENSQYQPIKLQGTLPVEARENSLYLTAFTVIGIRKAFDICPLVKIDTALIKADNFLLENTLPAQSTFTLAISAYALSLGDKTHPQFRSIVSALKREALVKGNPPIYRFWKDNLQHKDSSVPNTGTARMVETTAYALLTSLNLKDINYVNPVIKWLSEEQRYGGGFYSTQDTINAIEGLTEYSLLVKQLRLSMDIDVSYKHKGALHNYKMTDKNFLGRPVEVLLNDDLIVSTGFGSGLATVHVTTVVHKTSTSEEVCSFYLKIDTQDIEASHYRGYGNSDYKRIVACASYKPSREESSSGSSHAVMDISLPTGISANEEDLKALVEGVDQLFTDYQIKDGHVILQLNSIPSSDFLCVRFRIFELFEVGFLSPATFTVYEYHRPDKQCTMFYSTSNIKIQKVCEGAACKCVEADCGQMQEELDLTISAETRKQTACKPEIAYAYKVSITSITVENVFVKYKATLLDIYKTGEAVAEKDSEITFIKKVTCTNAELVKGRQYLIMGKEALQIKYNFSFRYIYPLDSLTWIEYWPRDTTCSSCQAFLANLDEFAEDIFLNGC

CCC[C@H](NC(=O)[C@@H](NC(=O)[C@@H]1CCCN1C(=O)[C@H](Cc1ccc(O)cc1)NC(=O)[C@H](CCC(=O)O)NC(=O)[C@H](Cc1c[nH]c2ncccc12)NC(=O)[C@H](Cc1ccc(O)cc1)NC(=O)[C@@H](NC(=O)[C@H](CC(=O)O)NC(=O)[C@@H]1CSCc2cccc(c2)CSC[C@H](NC(C)=O)C(=O)N[C@@H](C(C)C)C(=O)N[C@@H](CCC(=O)O)C(=O)N[C@@H](CCCNC(=N)N)C(=O)N[C@@H](C)C(=O)N1)C(C)(C)C)c1ccccc1)C(N)=O [Compound R3155, [mXylyl(1,6)]Ac-C-V-E-R-A-C-D-Tbg-Y-azaTrp-E-Y-P-Phg-Nvl-NH2] (Ac-CVERACD[Tle]Y[Trp(7-aza)]EYP[Phg][Nva]-NH2; linker 1-6 via mXylylene)
IC50 [1]: 1530 nM

CCC[C@H](NC(=O)[C@@H]1CSCc2cccc(c2)CSC[C@H](NC(=O)[C@H](CCC)NC(C)=O)C(=O)N[C@H](C2CCCCC2)C(=O)N[C@@H]([C@@H](C)O)C(=O)N[C@@H](Cc2c[nH]c3ncccc23)C(=O)N[C@@H](CCC(=O)O)C(=O)N[C@@H](Cc2ccc(O)cc2)C(=O)N(C)[C@@H](CO)C(=O)N[C@@H](C)C(=O)N1)C(N)=O [Compound R3093, [mXylyl(2,10)]Ac-Nvl-C-(D-Chg)-T-azaTrp-E-Y-(N-Me)S-A-C-Nvl-NH2] (Ac-[Nva]C[dChg]T[Trp(7-aza)]EY[NMeS]AC[Nva]-NH2; linker 2-10 via mXylylene)
IC50 [1]: > 100000 nM

CCC[C@H](NC(C)=O)C(=O)N[C@@H](CS)C(=O)N[C@@H](Cc1ccc(O)cc1)C(=O)N[C@@H](CCCCN)C(=O)N[C@@H](CC(N)=O)C(=O)N[C@@H](Cc1ccc(O)cc1)C(=O)N[C@@H](Cc1c[nH]cn1)C(=O)N[C@@H](Cc1c[nH]c2ncccc12)C(=O)N[C@@H](CCC(=O)O)C(=O)N[C@@H](Cc1ccc(O)cc1)C(=O)N1CCC[C@H]1C(=O)N[C@H](C(=O)N[C@@H](Cc1ccc(O)cc1)C(N)=O)C(C)(C)C [Compound R3000, Ac-Nvl-C-Y-K-N-Y-H-azaTrp-E-Y-P-Tbg-Y-NH2] (Ac-[Nva]CYKNYH[Trp(7-aza)]EYP[Tle]Y-NH2)
IC50 [1]: > 10000 nM

CSCC[C@H](N)C(=O)N[C@H]1CSCc2cccc(c2)CSC[C@@H](C(N)=O)NC(=O)[C@H](Cc2ccccc2)NC(=O)[C@H](CCCNC(=N)N)NC(=O)[C@H](CCC(=O)O)NC(=O)[C@H](C(C)C)NC1=O [Compound R3047, [mXylyl(2,7)]M-C-V-E-R-F-C-NH2] (H-MCVERFC-NH2; linker 2-7 via mXylylene)
IC50 [2]: > 100000 nM
IC50 [1]: > 100000 nM

CCC[C@H](NC(=O)[C@@H]1CSCc2ccc(cc2)CSC[C@H](NC(=O)[C@H](CCC)NC(C)=O)C(=O)N[C@@H](c2ccccc2)C(=O)N[C@@H]([C@@H](C)O)C(=O)N[C@@H](Cc2c[nH]c3ncccc23)C(=O)N[C@@H](CCC(=O)O)C(=O)N[C@@H](Cc2ccc(O)cc2)C(=O)N2CCC[C@H]2C(=O)N[C@@H](Cc2c[nH]cn2)C(=O)N1)C(N)=O [Compound R3065, [pXy1y1(2,10)]Ac-Nvl-C-PhE-T-azaTrp-E-Y-P-H-C-Nvl-NH2] (Ac-[Nva]C[Phg]T[Trp(7-aza)]EYPHC[Nva]-NH2; linker 2-10 via pXylylene)
IC50 [1]: 394 nM

CSCC[C@H](N)C(=O)N[C@H]1CSCc2cccc(c2)CSC[C@@H](C(=O)N[C@@H](CC(=O)O)C(=O)N[C@H](C(=O)N[C@@H](Cc2ccc(O)cc2)C(N)=O)C(C)C)NC(=O)[C@H](Cc2ccccc2)NC(=O)[C@H](CCCNC(=N)N)NC(=O)[C@H](CCC(=O)O)NC(=O)[C@H](C(C)C)NC1=O [Compound R3045, [mXylyl(2,7)]M-C-V-E-R-F-C-D-V-Y-NH2] (H-MCVERFCDVY-NH2; linker 2-7 via mXylylene)
IC50 [2]: > 100000 nM
IC50 [1]: > 100000 nM

CCC[C@H](NC(=O)[C@@H]1CSCc2cccc(c2)CSC[C@H](NC(=O)[C@H](CCC)NC(C)=O)C(=O)N[C@@H](c2ccccc2)C(=O)N[C@@H]([C@@H](C)O)C(=O)N[C@@H](Cc2c[nH]c3ncccc23)C(=O)N[C@@H](CCC(=O)O)C(=O)N[C@@H](Cc2ccc(O)cc2)C(=O)N2CCC[C@H]2C(=O)N[C@@H](Cc2c[nH]cn2)C(=O)N1)C(N)=O [Compound R3102, [mXylyl(2,10)]Ac-Nvl-C-Phg-T-azaTrp-E-Y-P-H-C-Nvl-NH2] (Ac-[Nva]C[Phg]T[Trp(7-aza)]EYPHC[Nva]-NH2; linker 2-10 via mXylylene)
IC50 [1]: 978 nM

CCC[C@H](NC(C)=O)C(=O)N[C@@H](CS)C(=O)N[C@@H](Cc1ccc(O)cc1)C(=O)N[C@@H](CC(N)=O)C(=O)N[C@@H](CC(N)=O)C(=O)N[C@H](C(=O)N[C@@H](CCC(=O)O)C(=O)N[C@@H](Cc1c[nH]c2ncccc12)C(=O)N[C@@H](CCC(=O)O)C(=O)N[C@@H](Cc1ccc(O)cc1)C(=O)N1CCC[C@H]1C(=O)N[C@H](C(=O)N[C@H](C(N)=O)C(C)(C)C)c1ccccc1)C(C)(C)C [Compound R3004, Ac-Nvl-C-Y-N-N-Tbg-E-azaTrp-E-Y-P-Phg-Tbg-NH2] (Ac-[Nva]CYNN[Tle]E[Trp(7-aza)]EYP[Phg][Tle]-NH2)
IC50 [1]: 53.5 nM

CCC[C@H](NC(=O)[C@@H]1CCSCc2cccc(c2)CSC[C@H](NC(=O)[C@H](CCC)NC(C)=O)C(=O)N[C@@H](c2ccccc2)C(=O)N[C@@H]([C@@H](C)O)C(=O)N[C@@H](Cc2c[nH]c3ncccc23)C(=O)N[C@@H](CCC(=O)O)C(=O)N[C@@H](Cc2ccc(O)cc2)C(=O)N(C)[C@@H](CO)C(=O)N[C@@H](Cc2c[nH]cn2)C(=O)N1)C(N)=O [Compound R3105, [mXylyl(2,10)]Ac-Nvl-C-Phg-T-azaTrp-E-Y-(N-Me)S-H-homoC-Nvl-NH2] (Ac-[Nva]C[Phg]T[Trp(7-aza)]EY[NMeS]H[hCys][Nva]-NH2; linker 2-10 via mXylylene)
IC50 [1]: > 5000 nM

CC(=O)N[C@H]1CSCc2cccc(c2)CSC[C@@H](C(=O)N[C@@H](CC(=O)O)C(=O)N[C@H](C(=O)N[C@@H](Cc2ccc(O)cc2)C(=O)N[C@@H](Cc2c[nH]c3ccccc23)C(=O)N[C@@H](CCC(=O)O)C(=O)N[C@@H](Cc2ccc(O)cc2)C(=O)N2CCC[C@H]2C(N)=O)C(C)C)NC(=O)[C@H](Cc2ccccc2)NC(=O)[C@H](CCCNC(=N)N)NC(=O)[C@H](CCC(=O)O)NC(=O)[C@H](C(C)C)NC1=O [Compound R3140, [mXv1v1(1,6)]Ac-C-V-E-R-F-C-D-V-Y-W-E-Y-P-NH2]
IC50 [1]: 17.9 nM

CCC[C@H](NC(=O)[C@H](NC(=O)[C@@H]1CCCN1C(=O)[C@H](Cc1ccc(O)cc1)NC(=O)[C@H](CCC(=O)O)NC(=O)[C@H](Cc1c[nH]c2ncccc12)NC(=O)[C@H](Cc1ccc(O)cc1)NC(=O)[C@@H](NC(=O)[C@H](CC(=O)O)NC(=O)[C@@H]1CSCc2cccc(c2)CSC[C@H](NC(C)=O)C(=O)N[C@@H](C(C)C)C(=O)N[C@@H](CCC(=O)O)C(=O)N[C@@H](CCCNC(=N)N)C(=O)N[C@@H](C)C(=O)N1)C(C)(C)C)c1ccccc1)C(N)=O [Compound R3156, [mXylyl(1,6)]Ac-C-V-E-R-A-C-D-Tbg-Y-azaTrp-E-Y-P-(D-Phg)-Nvl-NH2] (Ac-CVERACD[Tle]Y[Trp(7-aza)]EYP[dPhg][Nva]-NH2; linker 1-6 via mXylylene)
IC50 [1]: > 10000 nM

CCC[C@H](NC(=O)[C@@H]1CSCc2cccc(c2)CSC[C@H](NC(=O)[C@@H](NC(C)=O)C(C)C)C(=O)N[C@@H](c2ccccc2)C(=O)N[C@@H]([C@@H](C)O)C(=O)N[C@@H](Cc2c[nH]c3ncccc23)C(=O)N[C@@H](CCC(=O)O)C(=O)N[C@@H](Cc2ccc(O)cc2)C(=O)N(C)[C@@H](CO)C(=O)N[C@@H](C)C(=O)N1)C(N)=O [Compound R3083, [mXylyl(2,10)]Ac-V-C-Phg-T-azaTrp-E-Y-(N-Me)S-A-C-Nvl-NH2] (Ac-VC[Phg]T[Trp(7-aza)]EY[NMeS]AC[Nva]-NH2; linker 2-10 via mXylylene)
IC50 [1]: > 25000 nM
